According to ChEMBL document CHEMBL1129952, “Structure-based design of substituted diphenyl sulfones and sulfoxides as lipophilic inhibitors of thymidylate synthase” (J Med Chem, 1997):
Several values for one entry are separate records, joined by “and”; a condition that tells them apart may be missing. Equal entries are not always repeated.

Tests used:
L1210 = assay: Inhibitory activity against murine L1210 leukemic cell lines.; conditions: Mus musculus
CCRF-CEM = assay: Inhibitory activity against human CCRF-CEM leukemic cell lines.
GC3/MTK- = assay: Inhibitory activity against GC3/M TK- human adreno carcinoma cell lines.
Thymidylate synthase [1] = target: T1, Thymidylate synthase (Homo sapiens, UniProt P04818)
Description: Binding affinity against recombinant thymidylate synthase in Escherichia coli

Thymidylate synthase [2] = target: T1, Thymidylate synthase; remark: listed apart in the source
Description: Binding affinity against recombinant human thymidylate synthase

T1 sequence (P04818 whole entry): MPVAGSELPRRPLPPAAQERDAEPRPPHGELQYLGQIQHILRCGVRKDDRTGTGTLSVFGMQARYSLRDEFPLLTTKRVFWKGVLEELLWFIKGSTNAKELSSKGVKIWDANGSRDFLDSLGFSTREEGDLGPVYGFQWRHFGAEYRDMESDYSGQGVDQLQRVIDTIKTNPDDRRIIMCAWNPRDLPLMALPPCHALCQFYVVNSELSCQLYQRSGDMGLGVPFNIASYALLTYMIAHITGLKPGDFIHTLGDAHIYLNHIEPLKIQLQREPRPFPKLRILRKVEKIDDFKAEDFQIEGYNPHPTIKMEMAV

SMILES | IC50 (L1210) | IC50 (CCRF-CEM) | IC50 (GC3/MTK-) | Ki (Thymidylate synthase [1]) | Ki (Thymidylate synthase [2])
C#CCN(Cc1ccc2nc(C)nc(O)c2c1)c1ccc([S+]([O-])c2ccccc2C)c(C(F)(F)F)c1 (stereo not drawn) | 1000 nM | 3000 nM | 9100 nM | 290 nM and 920 nM | 260 nM and 390 nM
C#CCN(Cc1ccc2nc(C)nc(O)c2c1)c1ccc(S(=O)(=O)c2ccccc2C)c(C(F)(F)F)c1 | 1000 nM | 2000 nM | > 5000 nM | 160 nM and 390 nM | 150 nM and 380 nM
C#CCN(Cc1ccc2nc(C)nc(O)c2c1)c1ccc([S+]([O-])c2ccccc2C)cc1 (stereo not drawn) | 1700 nM | 3500 nM | 4000 nM | 250 nM and 780 nM | 45 nM and 77 nM
C#CCN(Cc1ccc2nc(C)nc(O)c2c1)c1ccc([S+]([O-])c2ccccc2)c(F)c1 (stereo not drawn) | 2100 nM | 1400 nM | 4200 nM | 88 nM and 290 nM | 50 nM and 120 nM
C#CCN(Cc1ccc2nc(C)nc(O)c2c1)c1ccc([S+]([O-])c2ccccc2Cl)cc1 (stereo not drawn) | 2100 nM | 5800 nM | 4300 nM | 190 nM and 760 nM | 46 nM and 73 nM
C#CCN(Cc1ccc2nc(C)[nH]c(=O)c2c1)c1ccc([S+]([O-])c2ccccc2)cc1 (stereo not drawn) |  |  |  | 160 nM and 550 nM | 61 nM and 110 nM

Further compounds by falling IC50 (GC3/MTK-), results first:

IC50 (L1210) | IC50 (CCRF-CEM) | IC50 (GC3/MTK-) | Ki (Thymidylate synthase [1]) | Ki (Thymidylate synthase [2]) | SMILES
1000 nM | 2300 nM | 3800 nM | 54 nM and 130 nM | 27 nM and 37 nM | C#CCN(Cc1ccc2nc(C)nc(O)c2c1)c1ccc([S+]([O-])c2ccccc2)c(Cl)c1 (stereo not drawn)
600 nM | 2700 nM | 3400 nM | 56 nM and 160 nM | 26 nM and 58 nM | C#CCN(Cc1ccc2nc(C)nc(O)c2c1)c1ccc(S(=O)(=O)c2ccccc2C)cc1
1100 nM | 3000 nM | 3300 nM | 110 nM and 160 nM | 70 nM and 150 nM | C#CCN(Cc1ccc2nc(C)nc(O)c2c1)c1ccc([S+]([O-])c2ccccc2)c(C(F)(F)F)c1 (stereo not drawn)
1600 nM | 1500 nM | 3000 nM | 33 nM and 43 nM | 24 nM and 55 nM | C#CCN(Cc1ccc2nc(C)nc(O)c2c1)c1ccc(S(=O)(=O)c2ccccc2)c(Cl)c1
1200 nM | 2000 nM | 2800 nM | 43 nM and 74 nM | 20 nM and 46 nM | C#CCN(Cc1ccc2nc(C)nc(O)c2c1)c1ccc(S(=O)(=O)c2ccccc2)c(F)c1
300 nM | 600 nM | 1200 nM | 33 nM and 69 nM | 21 nM and 25 nM | C#CCN(Cc1ccc2nc(C)nc(O)c2c1)c1ccc(S(=O)(=O)c2ccccc2Cl)cc1
 |  | 1030 nM |  |  | C#CCN(Cc1ccc2nc(C)nc(O)c2c1)c1ccc(S(=O)(=O)c2ccccc2)cc1
